Reference: the CheMixHub ionic liquid set
Several values for one entry are separate records, joined by “and”; a condition that tells them apart may be missing. Identical values can stand only once.

Assay: xn = mol fraction of the nth substance listed

CC(=O)[O-].CCCC[NH2+]CCO + CCCC[n+]1ccn(C)c1.COP(=O)([O-])OC
viscosity [mPa·s], 101 kPa
Settings	x1 = 0.1014	x1 = 0.172	x1 = 0.2979	x1 = 0.4067	x1 = 0.4989	x1 = 0.6316	x1 = 0.7065	x1 = 0.8011	x1 = 0.8913	x1 = 1
278.15 K	–	–	–	–	–	–	–	–	–	6138
283.15 K	1725	1555	1328	1208	1161	1288	1457	1793	2360	3634
288.15 K	1103	997	855	781	751	825	930	1135	1475	2230
293.15 K	730	662	571	522	503	548	614	741	952	1412
298.15 K	499	454	392	360	346	375	417	499	633	921
303.15 K	351	319.8	277.3	254.3	244.8	263.1	290.6	344	431	617
308.15 K	253.2	231.1	200.9	184.2	177.2	189.1	207.4	243.2	301	423
313.15 K	186.8	170.8	148.7	136.5	131.1	138.9	151.3	175.7	214.8	297
318.15 K	140.7	128.9	112.4	103.1	98.9	104	112.6	129.5	156.5	212.7
323.15 K	108.1	99.1	86.6	79.4	76	79.4	85.4	97.2	116.1	155.3
328.15 K	84.5	77.6	67.8	62.2	59.4	61.6	65.9	74.2	87.7	115.3
333.15 K	67.08	61.68	53.98	49.43	47.16	48.5	51.57	57.6	67.3	87
338.15 K	54.05	49.76	43.58	39.88	37.96	38.75	40.98	45.33	52.4	66.7
343.15 K	44.14	40.69	35.65	32.6	30.96	31.37	33	36.18	41.36	51.9
348.15 K	36.5	33.69	29.51	26.96	25.56	25.71	26.9	29.24	33.08	40.87
353.15 K	30.53	28.22	24.71	22.56	21.33	21.31	22.18	23.9	26.78	32.6
358.15 K	25.8	23.88	20.91	19.07	17.99	17.86	18.48	19.75	21.91	26.29
363.15 K	22.02	20.4	17.86	16.27	15.31	15.1	15.55	16.48	18.11	21.43
368.15 K	18.97	17.58	15.4	14.01	13.15	12.89	13.21	13.89	15.12	17.63
373.15 K	16.47	15.28	13.38	12.15	11.38	11.09	11.3	11.8	12.72	14.64

CS(C)=O + CCCC[n+]1ccn(C)c1.F[B-](F)(F)F
100 kPa, x2 = 0
Settings	electrical conductivity [S/m]	viscosity
298.15 K	0.042	1.99 mPa·s and 2.012 mPa·s
303.15 K	–	1.8 mPa·s
308.15 K	–	1.65 mPa·s
313.15 K	–	1.54 mPa·s

CC(=O)[O-].CCCC[NH2+]CCO + CCCC[n+]1ccn(C)c1.O=S(=O)([N-]S(=O)(=O)C(F)(F)F)C(F)(F)F
101 kPa
Settings	viscosity [mPa·s]
283.15 K, x1 = 0.1012	127.4
283.15 K, x1 = 0.6987	1145
283.15 K, x1 = 0.8008	1850
283.15 K, x1 = 1	3634
288.15 K, x1 = 0.3002	164.2
288.15 K, x1 = 0.8008	1170
288.15 K, x1 = 0.901	1735
298.15 K, x1 = 0.2257	78.02
298.15 K, x1 = 0.8008	515
298.15 K, x1 = 0.901	731
298.15 K, x1 = 1	921
303.15 K, x1 = 0.4998	126.1
303.15 K, x1 = 0.8008	356
308.15 K, x1 = 0.3002	56.19
308.15 K, x1 = 1	423
313.15 K, x1 = 0.4998	73.4
313.15 K, x1 = 0.6987	130.9
313.15 K, x1 = 0.8008	182
313.15 K, x1 = 0.901	243.8
313.15 K, x1 = 1	297
318.15 K, x1 = 0.2257	32.2
318.15 K, x1 = 0.6987	98.5
318.15 K, x1 = 0.901	176.6
323.15 K, x1 = 0.6987	75.5
328.15 K, x1 = 0.2257	22.42
328.15 K, x1 = 0.6018	46.47
328.15 K, x1 = 0.901	98
338.15 K, x1 = 0.6987	37.11
343.15 K, x1 = 0.2257	14.05
343.15 K, x1 = 0.4998	20.65
343.15 K, x1 = 0.901	45.6
343.15 K, x1 = 1	51.9
348.15 K, x1 = 0.423	15.42
353.15 K, x1 = 0.901	29.26
353.15 K, x1 = 1	32.6
358.15 K, x1 = 0.3002	9.99
358.15 K, x1 = 0.423	11.46
358.15 K, x1 = 0.4998	12.68
363.15 K, x1 = 0.423	9.98
363.15 K, x1 = 1	21.43
368.15 K, x1 = 0.8008	14.29
368.15 K, x1 = 1	17.63
373.15 K, x1 = 0.3002	6.99
373.15 K, x1 = 0.423	7.73
373.15 K, x1 = 0.4998	8.35
373.15 K, x1 = 1	14.64

CCCCCCCCCCCCCC[P+](CCCCCC)(CCCCCC)CCCCCC.[c-]1c[nH]nn1 + CCCC[n+]1ccn(C)c1.O=S(=O)([N-]S(=O)(=O)C(F)(F)F)C(F)(F)F
100 kPa
Settings	viscosity [mPa·s]
278.15 K, x2 = 0.2	2422
283.15 K, x2 = 0.1	1490
283.15 K, x2 = 0.722	481
293.15 K, x2 = 0.301	663
298.15 K, x2 = 0.1	486
298.15 K, x2 = 0.388	428
298.15 K, x2 = 0.9	77
303.15 K, x2 = 0.1	353
303.15 K, x2 = 0.301	339
308.15 K, x2 = 0.2	273
313.15 K, x2 = 0.2	205
313.15 K, x2 = 0.388	174
318.15 K, x2 = 0.2	158
318.15 K, x2 = 0.301	147
318.15 K, x2 = 0.8	50
323.15 K, x2 = 0.301	115

CS(C)=O + CCCC[n+]1ccn(C)c1.O=S(=O)([N-]S(=O)(=O)C(F)(F)F)C(F)(F)F
100 kPa
Settings	electrical conductivity [S/m]	viscosity [mPa·s]
294.5 K, x2 = 0.02028	0.45	–
298.15 K, x1 = 0.5903	–	13.22
303.15 K, x1 = 0.2885	–	23.78
303.15 K, x1 = 0.5026	–	13.9
308.15 K, x1 = 0.5903	–	9.52
308.15 K, x1 = 1	–	1.67
313.15 K, x1 = 0.0951	–	23.09
313.15 K, x1 = 0.2074	–	19.57
313.15 K, x1 = 0.5903	–	8.39
313.15 K, x1 = 1	–	1.53
323.15 K, x1 = 0.9012	–	2.15

N#CCCCCC#N + CCCC[n+]1ccn(C)c1.O=S(=O)([N-]S(=O)(=O)C(F)(F)F)C(F)(F)F
Settings	electrical conductivity [S/m]
294.5 K, 100 kPa, x2 = 0.02785	0.29

CS(C)=O + CCCC[n+]1ccn(C)c1.O=S(=O)([O-])C(F)(F)F
100 kPa, x2 = 0
Settings	viscosity [mPa·s]
298.15 K	2.03
303.15 K	1.84
308.15 K	1.67
313.15 K	1.53
318.15 K	1.41
323.15 K	1.3
